ChEMBL document CHEMBL1137423, “Nanomolar inhibition of the enterobactin biosynthesis enzyme, EntE: synthesis, substituent effects, and additivity” (Bioorg Med Chem Lett, 2006)

How the values were obtained:
[1] = molecular target: T1, Enterobactin synthase component E (Escherichia coli K-12, UniProt P10378); assay: Binding affinity to EntE; conditions: read-out: Ki app
T1 sequence (P10378 whole entry): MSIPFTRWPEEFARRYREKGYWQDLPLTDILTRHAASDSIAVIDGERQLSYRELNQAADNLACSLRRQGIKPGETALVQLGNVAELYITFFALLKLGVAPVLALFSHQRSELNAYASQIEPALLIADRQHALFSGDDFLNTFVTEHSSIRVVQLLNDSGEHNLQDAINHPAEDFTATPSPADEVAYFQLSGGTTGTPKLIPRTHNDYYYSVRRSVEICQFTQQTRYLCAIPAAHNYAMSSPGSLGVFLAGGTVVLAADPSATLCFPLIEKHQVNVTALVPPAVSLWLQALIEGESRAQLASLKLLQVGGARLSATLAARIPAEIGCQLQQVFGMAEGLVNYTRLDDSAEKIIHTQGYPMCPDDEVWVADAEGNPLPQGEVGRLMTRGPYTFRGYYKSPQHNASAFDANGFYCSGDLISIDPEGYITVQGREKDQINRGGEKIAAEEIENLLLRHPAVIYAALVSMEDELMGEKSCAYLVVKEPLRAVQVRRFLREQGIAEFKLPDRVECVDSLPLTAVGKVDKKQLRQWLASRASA

[2] = molecular target: T2, Enterobactin synthase component E (Escherichia coli K-12) (UniProt P10378); assay: Inhibition of EntE at 0.0006 M
T2 sequence (whole entry): T1 sequence (P10378 whole entry)

[3] = molecular target: T1, Enterobactin synthase component E; assay: Binding affinity to EntE corrected to substrate competition

Row | Ki [1] [µM] | inhibition [2] [%] | Ki [3] [nM] | SMILES
1 | ≥ 1000 | < 10 | – | CC(=O)NOP(=O)(O)OC[C@H]1O[C@@H](n2cnc3cncnc32)[C@H](O)[C@@H]1O
2 | 0.009 | – | 4.5 | O=C(NOP(=O)(O)OC[C@H]1O[C@@H](n2cnc3cncnc32)[C@H](O)[C@@H]1O)c1cccc(O)c1O
3 | 13 | – | – | O=C(NOP(=O)(O)OC[C@H]1O[C@@H](n2cnc3cncnc32)[C@H](O)[C@@H]1O)c1ccccc1
4 | 0.037 | – | – | O=C(NOP(=O)(O)OC[C@H]1O[C@@H](n2cnc3cncnc32)[C@H](O)[C@@H]1O)c1ccccc1O
